# Reference: the supplement of paper PMC11208160
# Test: recombinant UMI read abundance after kanamycin selection (control-corrected) (log10(CPM+1)); higher = more efficient recombination; extreme values may be limits of the assay; sequences stand for … in AGTGCAGAGAAAATCGGCCAGTTTTCTCTGCCTGCAGTCCGCATGCCGTGGGACCCCTTGGGTTCTAACCTGTTGCCTAGATTTATGCAGCGGACTGCCTTTCTCCCAAAGTGATAAACCGG…AGGTTGGTTTCACT; site = the 11-nt donor
# Method: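 Pooled E. coli donor-specificity screen for the IS621 bridge recombinase. Each library member carries a reprogrammed 11-nt donor and a full-length LE bridge RNA expressed in cis from the natural promoter, with a paired donor-binding loop (8-nt LDG + 4-nt RDG) and a target-binding loop fixed to T5. It is co-electroporated with a T5 target plasmid; recombinase is induced with 0.07 mM IPTG and recombinants are selected on kanamycin. UMIs are counted as CPM, averaged over two biological replicates and corrected by the unselected control. Molecule = full bridge RNA written as DNA, built from the T5 scaffold: LDG = donor specificity nt 1-8, RDG = reverse complement of nt 8-11.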
# 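Note: IS621 bridge recombinase in Escherichia coli cells against a fixed T5 target plasmid.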
row,Sequence,recombinant UMI read abundance (log10)
1,AAGAAGCCATGGACCGGTTTTCCCGGTAATCCGTATTTGCA (site AAGAAGCCTTG),1.32
2,AAGAAGCCATGGACCGGTTTTCCCGGTAATCCGTATTTGCA (site AGGAAGACTTG),0.00613
3,AAGACGACATGGACCGGTTTTCCCGGTAATCCGTATTTGGA (site AAGACGACTTC),0.804
4,AAGCACCCATGGACCGGTTTTCCCGGTAATCCGTATTTGGG (site AAGCACACTCC),0.0118
5,AAGCACCCATGGACCGGTTTTCCCGGTAATCCGTATTTGGG (site AAGCACCCTCC),0.0505
6,AAGCACCCATGGACCGGTTTTCCCGGTAATCCGTATTTGGG (site AAGCACGCTCC),0.00747
7,AAGCACCCATGGACCGGTTTTCCCGGTAATCCGTATTTGGG (site AAGCACTCTCC),0.371
8,AAGCAGACATGGACCGGTTTTCCCGGTAATCCGTATTTGGA (site AAGCAGACTTC),1.25
9,AAGCAGTCATGGACCGGTTTTCCCGGTAATCCGTATTTGAC (site AAGCAGTCTGT),2.88
10,AAGCATGCATGGACCGGTTTTCCCGGTAATCCGTATTTGGG (site AAGCAAGCTCC),0.0205
11,AAGCATGCATGGACCGGTTTTCCCGGTAATCCGTATTTGGG (site AAGCACGCTCC),0.00447
12,AAGCATGCATGGACCGGTTTTCCCGGTAATCCGTATTTGGG (site AAGCAGGCTCC),0.0127
13,AAGCATGCATGGACCGGTTTTCCCGGTAATCCGTATTTGGG (site AAGCATGCTCC),0.297
14,AAGCCGCCATGGACCGGTTTTCCCGGTAATCCGTATTTGGC (site AAGCCGCCTGC),0
15,AAGCCTTCATGGACCGGTTTTCCCGGTAATCCGTATTTGGT (site AAGCCTTCTAC),0.585
16,AAGCCTTCATGGACCGGTTTTCCCGGTAATCCGTATTTGGT (site CAGCCTTCTAC),0.357
17,AAGCCTTCATGGACCGGTTTTCCCGGTAATCCGTATTTGGT (site GAGCCTTCTAC),0.134
18,AAGCCTTCATGGACCGGTTTTCCCGGTAATCCGTATTTGGT (site TAGCCTTCTAC),0.12
19,AAGCGTCCATGGACCGGTTTTCCCGGTAATCCGTATTTGCG (site AAGCGTCCTCG),1.06
20,AAGCGTTCATGGACCGGTTTTCCCGGTAATCCGTATTTGTT (site AAGCGTTCTAA),1.52
21,AAGCTCACATGGACCGGTTTTCCCGGTAATCCGTATTTGAT (site AAGCTCACTAT),1.97
22,AAGCTCACATGGACCGGTTTTCCCGGTAATCCGTATTTGAT (site CAGCTCACTAT),1.5

row,Sequence,recombinant UMI read abundance (log10)
1,AAGCTCACATGGACCGGTTTTCCCGGTAATCCGTATTTGAT (site GAGCTCACTAT),0.291
2,AAGCTCACATGGACCGGTTTTCCCGGTAATCCGTATTTGAT (site TAGCTCACTAT),1.55
3,AAGGACCCATGGACCGGTTTTCCCGGTAATCCGTATTTGAA (site AAGGACCCTTT),1.1
4,AAGGACGCATGGACCGGTTTTCCCGGTAATCCGTATTTGCC (site AAGGACGCTGG),2.85
5,AAGGAGCCATGGACCGGTTTTCCCGGTAATCCGTATTTGGA (site AAGGAGCCTTC),0.02
6,AAGGCGACATGGACCGGTTTTCCCGGTAATCCGTATTTGCT (site AAGGCGACTAG),2.18
7,AAGGGACCATGGACCGGTTTTCCCGGTAATCCGTATTTGGT (site AAGGGACCTAC),0.00499
8,AAGGGGCCATGGACCGGTTTTCCCGGTAATCCGTATTTGTG (site AAGGGGCCTCA),0.00547
9,AAGGGTCCATGGACCGGTTTTCCCGGTAATCCGTATTTGAG (site AAGGGTCCTCT),0.405
10,AAGGTGCCATGGACCGGTTTTCCCGGTAATCCGTATTTGAT (site AAGGTGCCTAT),0.438
11,AAGTAAGCATGGACCGGTTTTCCCGGTAATCCGTATTTGGA (site AAGTAAGCTTC),1.78
12,AAGTATGCATGGACCGGTTTTCCCGGTAATCCGTATTTGGA (site AAATATGCTTC),0.814
13,AAGTATGCATGGACCGGTTTTCCCGGTAATCCGTATTTGGA (site AACTATGCTTC),1.43
14,AAGTATGCATGGACCGGTTTTCCCGGTAATCCGTATTTGGA (site AAGTATGCTTC),1.96
15,AAGTATGCATGGACCGGTTTTCCCGGTAATCCGTATTTGGA (site AATTATGCTTC),1.04
16,AAGTCAACATGGACCGGTTTTCCCGGTAATCCGTATTTGTG (site AAGTCAACTCA),0.011
17,AAGTCCACATGGACCGGTTTTCCCGGTAATCCGTATTTGCC (site AAGTCCACTGG),1.61
18,AAGTCCGCATGGACCGGTTTTCCCGGTAATCCGTATTTGAT (site AAGTCCGCTAT),1.53
19,AAGTCGACATGGACCGGTTTTCCCGGTAATCCGTATTTGGG (site AAGTCGACTCC),0.0303
20,AAGTCGACATGGACCGGTTTTCCCGGTAATCCGTATTTGGG (site CAGTCGACTCC),0.0471
21,AAGTCGACATGGACCGGTTTTCCCGGTAATCCGTATTTGGG (site GAGTCGACTCC),0.0282
22,AAGTCGACATGGACCGGTTTTCCCGGTAATCCGTATTTGGG (site TAGTCGACTCC),0.0179

row,Sequence,recombinant UMI read abundance (log10)
1,AAGTCTACATGGACCGGTTTTCCCGGTAATCCGTATTTGTA (site AAGTCTACTTA),0.646
2,AAGTTCCCATGGACCGGTTTTCCCGGTAATCCGTATTTGTG (site AAGTTCCCTCA),0.111
3,AAGTTCCCATGGACCGGTTTTCCCGGTAATCCGTATTTGTG (site ACGTTCCCTCA),0
4,AAGTTCCCATGGACCGGTTTTCCCGGTAATCCGTATTTGTG (site AGGTTCCCTCA),0.0112
5,AAGTTCCCATGGACCGGTTTTCCCGGTAATCCGTATTTGTG (site ATGTTCCCTCA),0.0155
6,AAGTTCTCATGGACCGGTTTTCCCGGTAATCCGTATTTGCC (site AAGTTCTCTGG),2.31
7,AAGTTGGCATGGACCGGTTTTCCCGGTAATCCGTATTTGCA (site AAGTTGGCTTG),2.05
8,AAGTTTACATGGACCGGTTTTCCCGGTAATCCGTATTTGAC (site AAGTTTACTGT),1.97
9,AATAAGACATGGACCGGTTTTCCCGGTAATCCGTATTTGAA (site AATAAGACTTT),1.86
10,AATAGAACATGGACCGGTTTTCCCGGTAATCCGTATTTGAG (site AATAGAACTCT),2
11,AATAGAACATGGACCGGTTTTCCCGGTAATCCGTATTTGAG (site ACTAGAACTCT),1.6
12,AATAGAACATGGACCGGTTTTCCCGGTAATCCGTATTTGAG (site AGTAGAACTCT),0.412
13,AATAGAACATGGACCGGTTTTCCCGGTAATCCGTATTTGAG (site ATTAGAACTCT),0.329
14,AATAGGACATGGACCGGTTTTCCCGGTAATCCGTATTTGCG (site AATAGGACTCG),1.97
15,AATAGTGCATGGACCGGTTTTCCCGGTAATCCGTATTTGGT (site AATAGTGCTAC),1.23
16,AATAGTGCATGGACCGGTTTTCCCGGTAATCCGTATTTGGT (site ACTAGTGCTAC),0.687
17,AATAGTGCATGGACCGGTTTTCCCGGTAATCCGTATTTGGT (site AGTAGTGCTAC),0.602
18,AATAGTGCATGGACCGGTTTTCCCGGTAATCCGTATTTGGT (site ATTAGTGCTAC),0.53
19,AATATAACATGGACCGGTTTTCCCGGTAATCCGTATTTGCT (site AATATAACTAG),1.99
20,AATATAACATGGACCGGTTTTCCCGGTAATCCGTATTTGCT (site AATCTAACTAG),0.615
21,AATATAACATGGACCGGTTTTCCCGGTAATCCGTATTTGCT (site AATGTAACTAG),1.47
